Some test systems named below: A498; HCT-116; HCT-15; HOP-62; HOP-92; HT-29; K562; NCI-H226; OVCAR-3; OVCAR-5; OVCAR-8; SF-295; SK-MEL-2; SK-OV-3; TK-10; UACC-62; UO-31; DU-145; PC-3.
What all share (assay): NCI-60 cell line screen, 48 h

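96-well plates; 48 h exposure; 5 concentrations. Endpoints by linear interpolation between flanking doses. Not reached: highest tested concentration assigned. GI50 is the concentration that inhibits growth by half.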 Calls of active or inactive are those of the source. Cut-off read from the data, not from the text of the source: active = GI50 up to about 1.1 µM and inactive = higher.

The source of these data is ChEMBL document CHEMBL1201862, “PubChem BioAssay data set” (2004).

Regarding `CCc1nc2c(O)ccc(O)c2nc1C`, the GI50 with A498 was 20.9 µM (inactive); in the assay with HCT-116 it was 8.38 µM (inactive); with HCT-15 it was 16.4 µM; in the assay on HOP-62, 18 µM (inactive); in the assay on HOP-92, 5.64 µM (inactive); in the assay with HT-29 it was 17.2 µM (inactive). For the same compound, the GI50 in the assay with K562 is 4.08 µM (inactive); in the assay with NCI-H226 it was 15.8 µM (inactive); in the assay on OVCAR-3 it was 14.7 µM (inactive); in the assay with OVCAR-5, 19.3 µM (inactive); with OVCAR-8, 10 µM (inactive); with SF-295 it was 20 µM (inactive). Besides, the GI50 with SK-MEL-2 was 18 µM (inactive); with SK-OV-3 it was 20 µM (inactive); in the assay on TK-10 it was 22.5 µM (inactive); in the assay with UACC-62, 14.3 µM (inactive); with UO-31 it was 19.3 µM (inactive).
On to `O=C1C(Cl)C(c2cc(Br)ccc2O)N1n1cnc2ccccc2c1=O` (stereo not drawn), for which the GI50 was 65.8 µM (inactive) in the assay with A498; 5.96 µM (inactive) in the assay on HCT-116; 5.13 µM with HCT-15; 13.7 µM (inactive) in the assay with HOP-62; 15.7 µM (inactive) in the assay on HOP-92; 30.5 µM (inactive) in the assay on HT-29. Also, the GI50 in the assay on K562 is 5.27 µM (inactive); in the assay with NCI-H226 it was 6.87 µM (inactive); in the assay with OVCAR-3 it was 6.93 µM (inactive); in the assay with OVCAR-5, 28.5 µM (inactive); in the assay with OVCAR-8 it was 12.1 µM (inactive); in the assay on SF-295 it was 16.8 µM (inactive). The GI50 is 22.1 µM (inactive) in the assay on SK-MEL-2; 20 µM (inactive) in the assay with SK-OV-3; 31.8 µM (inactive) with TK-10; 11.5 µM (inactive) in the assay with UACC-62; 7.4 µM (inactive) in the assay with UO-31.
As for `Fc1ccc(C2SCc3nc4ccccc4n32)c(F)c1` (stereo not drawn), the GI50 was > 100 µM (inactive) in the assay on A498; 54 µM (inactive) in the assay on HCT-116; 49.4 µM with HCT-15; > 100 µM (inactive) in the assay on HOP-62; 29.8 µM (inactive) with HOP-92; 81.1 µM (inactive) in the assay on HT-29. Besides, the GI50 is 34.9 µM (inactive) in the assay with K562; > 100 µM (inactive) in the assay with NCI-H226; 51.1 µM (inactive) in the assay with OVCAR-3; 67.6 µM (inactive) in the assay with OVCAR-5; 79.3 µM (inactive) in the assay on OVCAR-8; 39.4 µM (inactive) in the assay with SF-295. For the same compound, the GI50 in the assay on SK-MEL-2 was 71.9 µM (inactive); in the assay with SK-OV-3, > 100 µM (inactive); in the assay on TK-10, 32.5 µM (inactive); with UACC-62 it was 64.7 µM (inactive); in the assay on UO-31 it was 42.3 µM (inactive).
In the case of `COC(=O)/C(C#N)=C1\CCc2ccccc21`, the GI50 in the assay with A498 is > 100 µM (inactive); in the assay with HCT-15 it was over 100 µM; with HOP-92, > 100 µM (inactive); in the assay with HT-29, > 100 µM (inactive); in the assay with K562 it was > 100 µM (inactive); in the assay on NCI-H226, > 100 µM (inactive). For the same compound, the GI50 with OVCAR-3, in the assay on OVCAR-5, in the assay with OVCAR-8, with SF-295, in the assay on SK-MEL-2 and in the assay with SK-OV-3 was > 100 µM (inactive) throughout. The GI50 in the assay with TK-10, with UACC-62 and in the assay with UO-31 was > 100 µM (inactive) each time.
In the case of `Cc1ccc(S(=O)(=O)N2c3ccccc3[C@H]3CCC=C[C@H]32)cc1`, the GI50 in the assay with A498 was 6.4 µM (inactive); with DU-145 it was 20.3 µM (inactive); with HCT-116, 5.86 µM (inactive); in the assay with HCT-15, 4.59 µM; in the assay with HOP-62, 7.46 µM (inactive); in the assay on HOP-92 it was 3.16 µM (inactive). Besides, the GI50 in the assay on HT-29 was 3.45 µM (inactive); with K562, 3.38 µM (inactive); in the assay with NCI-H226 it was 10.5 µM (inactive); in the assay on OVCAR-3, 4 µM (inactive); in the assay on OVCAR-5 it was 41.3 µM (inactive); with OVCAR-8, 20.5 µM (inactive). Besides, the GI50 with PC-3 is 11.2 µM (inactive); with SF-295, 3.91 µM (inactive); with SK-MEL-2, 4.58 µM (inactive); in the assay on SK-OV-3, 2.54 µM (inactive); in the assay with TK-10, 13.7 µM (inactive); with UACC-62, 4.82 µM (inactive). The GI50 in the assay with UO-31 was 5 µM (inactive).
As for `CC(C(=O)c1ccc(O)cc1)C1(O)C(=O)Nc2c(Cl)cc(Cl)cc21` (stereo not drawn), the GI50 in the assay with A498 is > 49.1 µM (inactive); in the assay on HCT-116, 43.1 µM (inactive); with HCT-15, 71.6 µM; in the assay on HOP-62, > 100 µM (inactive); in the assay on HOP-92, > 100 µM (inactive); with HT-29, > 73.8 µM (inactive). For the same compound, the GI50 with K562 is 2.56 µM (inactive); with NCI-H226 it was 19.1 µM (inactive); with OVCAR-3 it was 31.6 µM (inactive); with OVCAR-5 it was > 100 µM (inactive); in the assay on OVCAR-8 it was 46.3 µM (inactive); with SF-295 it was 45.4 µM (inactive). Besides, the GI50 in the assay on SK-MEL-2 is > 100 µM (inactive); in the assay on SK-OV-3, > 100 µM (inactive); in the assay on TK-10 it was > 100 µM (inactive); in the assay with UACC-62, 14 µM (inactive); in the assay on UO-31 it was > 56.6 µM (inactive).
Take `Cc1ccc(C2(O)CC(c3ccc([N+](=O)[O-])o3)=NN2C(=O)COc2ccccc2Cl)cc1` (stereo not drawn): the GI50 with A498 is 12.9 µM (inactive); in the assay on HCT-116 it was 5.6 µM (inactive); in the assay on HCT-15, 4.68 µM; in the assay with HOP-62 it was 29.2 µM (inactive); in the assay on HOP-92, 27.4 µM (inactive); in the assay on HT-29 it was 4.21 µM (inactive). Also, the GI50 is 7.26 µM (inactive) in the assay on K562; 50.5 µM (inactive) with NCI-H226; 3.94 µM (inactive) in the assay with OVCAR-3; 32.7 µM (inactive) with OVCAR-5; 11.2 µM (inactive) with OVCAR-8; 15.3 µM (inactive) in the assay with SF-295. Moreover, the GI50 is 8.07 µM (inactive) with SK-MEL-2; 81.1 µM (inactive) in the assay with SK-OV-3; 35.7 µM (inactive) with TK-10; 3.91 µM (inactive) in the assay with UACC-62; 12.5 µM (inactive) with UO-31.
As to `CCN(CC)Cc1nc2sc3c(c2c(=O)n1-c1ccccc1)CCCC3`, the GI50 in the assay on A498 is 15.3 µM (inactive); in the assay on DU-145, 23 µM (inactive); with HCT-116, 18.7 µM (inactive); with HCT-15, 23.8 µM; in the assay on HOP-62 it was 27.4 µM (inactive); with HOP-92, 22 µM (inactive). Also, the GI50 in the assay on HT-29 was 12.9 µM (inactive); in the assay on K562, 35.2 µM (inactive); in the assay with NCI-H226, 15.2 µM (inactive); in the assay with OVCAR-3, 17.2 µM (inactive); in the assay with OVCAR-5 it was 19.7 µM (inactive); in the assay with OVCAR-8, 17.5 µM (inactive). The GI50 was 15.9 µM (inactive) in the assay with PC-3; 23.7 µM (inactive) in the assay on SF-295; 19.1 µM (inactive) in the assay on SK-MEL-2; 23.7 µM (inactive) in the assay with SK-OV-3; 16.4 µM (inactive) in the assay on TK-10; 15.4 µM (inactive) in the assay with UACC-62. For the same compound, the GI50 in the assay with UO-31 is 11.2 µM (inactive).
For the compound `COc1ccc2nc3c(C(=O)NCCN(C)C)cccc3nc2c1`, the GI50 in the assay on A498 is 1.84 µM (inactive); in the assay on HCT-116 it was 3.32 µM (inactive); in the assay with HCT-15, 3.93 µM; with HOP-62, 7.23 µM (inactive); in the assay with HOP-92, 4.34 µM (inactive); in the assay on HT-29, 4.17 µM (inactive). Moreover, the GI50 in the assay with K562 was 5 µM (inactive); in the assay with NCI-H226, 6.85 µM (inactive); in the assay with OVCAR-3, 10.2 µM (inactive); with OVCAR-5, 11.2 µM (inactive); in the assay with OVCAR-8 it was 5.16 µM (inactive); with SF-295, 6.41 µM (inactive). The GI50 was 6.21 µM (inactive) in the assay on SK-MEL-2; 9.04 µM (inactive) in the assay with SK-OV-3; 3.37 µM (inactive) with TK-10; 5.55 µM (inactive) in the assay on UACC-62; 4.89 µM (inactive) with UO-31.
Take `C#CCOCn1cnc2c(Sc3c([N+](=O)[O-])ncn3C)ncnc21`: the GI50 was > 100 µM (inactive) in the assay on A498; over 100 µM with HCT-15; > 100 µM (inactive) in the assay on HOP-62; > 100 µM (inactive) with HOP-92; > 100 µM (inactive) in the assay on HT-29; > 100 µM (inactive) with K562. The GI50 with NCI-H226, in the assay on OVCAR-3, in the assay on OVCAR-5, in the assay on OVCAR-8, with SF-295 and in the assay with SK-MEL-2 was > 100 µM (inactive) in each case. Further, the GI50 with SK-OV-3 was > 100 µM (inactive); in the assay on TK-10, > 100 µM (inactive); in the assay with UACC-62 it was > 100 µM (inactive); with UO-31 it was 91.8 µM (inactive).
As for `CC12OC3CC(O1)C1(C=O)C4CCC5(C)C(c6ccc(=O)oc6)CCC5(O)C4CCC1(C3)O2` (stereo not drawn), the GI50 in the assay with A498 was 0.33 µM (active); in the assay with HCT-116, 0.0537 µM (active); with HCT-15 it was 0.212 µM; in the assay with HOP-62, 0.146 µM (active); in the assay on HOP-92, 0.339 µM (active); with HT-29, 0.385 µM (active). The GI50 in the assay on K562 is 0.265 µM (active); in the assay with NCI-H226, 0.417 µM (active); with OVCAR-3 it was 0.13 µM (active); with OVCAR-5, 0.383 µM (active); in the assay on OVCAR-8 it was 0.256 µM (active); in the assay with SF-295, 0.0986 µM (active). In addition, the GI50 was 0.268 µM (active) with SK-MEL-2; 0.213 µM (active) with SK-OV-3; 0.143 µM (active) in the assay with TK-10; 0.288 µM (active) in the assay on UACC-62; 0.304 µM (active) with UO-31.
Turning to `Oc1ccc(/C=N/c2nccs2)c(O)c1`, the GI50 with DU-145 was > 100 µM (inactive); with HCT-116, > 100 µM (inactive); with HCT-15, over 100 µM; in the assay on HOP-62 it was > 100 µM (inactive); with HT-29 it was > 100 µM (inactive); with NCI-H226 it was > 100 µM (inactive). Further, the GI50 with OVCAR-3, with OVCAR-5, in the assay with OVCAR-8, in the assay with PC-3, with SF-295 and with SK-OV-3 was > 100 µM (inactive) in each case. The GI50 with TK-10, in the assay on UACC-62 and with UO-31 was > 100 µM (inactive) throughout.
